Measured values taken from US20230381142A1, “ANTILEISHMANIAL COMPOUNDS, COMPOSITIONS AND USE THEREOF” (TRUSTEES OF BOSTON UNIVERSITY, priority 2022, published 2023).
≈ marks a conversion by molar mass, not a printed value.

Legend:
[1] = test system: L. donovani intracellular amastigotes infecting THP-1 macrophages; assay: GSK intramacrophage L. donovani assay (LD AMMAC, inMac; Assay Conditions C); format: cell-based; settings: Leishmania donovani; growth inhibition of L. donovani intracellular amastigotes infecting THP-1 macrophages; read-out: LD AMMAC EC50
How it was run: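 EC50 values come from counting amastigotes per infected THP-1 macrophage (AMMAC). Parallel read-outs give percentage of infected cells per well (INFCELL) and a macrophage-number toxicity EC50 (MAC).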

[2] = test system: host THP-1 macrophages; assay: GSK inMac assay, host cell toxicity readout (LD MAC); format: cell-based, human; settings: Homo sapiens, THP-1, cytotoxicity against host THP-1 macrophages
How it was run: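 MAC EC50 reflects THP-1 host cell counts, measured within GSK's inMac L. donovani infection assay that also scores intracellular amastigotes and infected-cell percentage.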

[3] = test system: HepG2 cells; assay: HepG2 cytotoxicity; format: cell-based; settings: Homo sapiens; toxicity against HepG2 cells
Method: Given the literature precedents described above and the apparent narrow tolerance for R^3 substitutions observed in the primary screen compounds, a thorough and methodical assessment was undertaken of tolerated groups at the three points of diversity (R^1/R^2/R^3) for the core. At this stage of the project, all analogues were assessed using a battery of assays performed in-house at GlaxoSmithKline. For antileishmanial activity, GSK's inMac assay was utilized. This assay provides two readouts of compound potency: average number of intracellular amastigotes per infected cell (AMMAC) EC50, percentage of infected cells per well (INFCELL) EC50, as well as a toxicity output derived from the number of host cells (MAC EC50). In addition, compounds were assessed for toxicity against HepG2 cells (HEPG2 EC50). Here, AMMAC EC50 values were focused on for relative potency assessments. […] It should be noted that for all compounds assessed in this project, the measured toxicity against THP-1 macrophages either equaled or exceeded that of HepG2 hepatocytes, therefore the MAC SI is used here as the more conservative estimate of therapeutic index.

[4] = Kinetic aqueous solubility by CLND; format: physicochemical; settings: kinetic from dmso stock, high-throughput CLND
Method: Solubility of compounds using ChemiLuminescent Nitrogen Detection (CLND) was measured as described. Solubility of compounds using Charged Aerosol Detection (CAD) was measured as described. Solubility of solid compounds in Fasted Simulated Intestinal Fluid (FaSSIF) was measured as described.

[5] = Artificial membrane permeability (AMP); format: in vitro ADME; settings: PAMPA, pH 7.4
Method: Passive permeability of compounds via rate of permeation through an artificial phospholipid membrane at pH 7.4 was measured in a high-throughput format, in duplicate. A solution of 1.8% phosphatidylcholine in 1% decane was added to a 96-well Millicell filter plate along with 250 μL of 50 mM phosphate buffer, pH 7.4 on the donor side, and 100 μL of the same buffer solution on the receiver side. The assay plate was shaken for 45 minutes before adding test compounds. Test compounds were then added to the filter plate and then incubated at room temperature with shaking for three hours. The donor and receiver solutions were next transferred to a 384-well plate for analysis by LC/MS.

[6] = target: human serum albumin (Homo sapiens, UniProt P02768); assay: Human serum albumin (HSA) binding, chromatographic; format: in vitro ADME
Sequence of human serum albumin (P02768 25-609): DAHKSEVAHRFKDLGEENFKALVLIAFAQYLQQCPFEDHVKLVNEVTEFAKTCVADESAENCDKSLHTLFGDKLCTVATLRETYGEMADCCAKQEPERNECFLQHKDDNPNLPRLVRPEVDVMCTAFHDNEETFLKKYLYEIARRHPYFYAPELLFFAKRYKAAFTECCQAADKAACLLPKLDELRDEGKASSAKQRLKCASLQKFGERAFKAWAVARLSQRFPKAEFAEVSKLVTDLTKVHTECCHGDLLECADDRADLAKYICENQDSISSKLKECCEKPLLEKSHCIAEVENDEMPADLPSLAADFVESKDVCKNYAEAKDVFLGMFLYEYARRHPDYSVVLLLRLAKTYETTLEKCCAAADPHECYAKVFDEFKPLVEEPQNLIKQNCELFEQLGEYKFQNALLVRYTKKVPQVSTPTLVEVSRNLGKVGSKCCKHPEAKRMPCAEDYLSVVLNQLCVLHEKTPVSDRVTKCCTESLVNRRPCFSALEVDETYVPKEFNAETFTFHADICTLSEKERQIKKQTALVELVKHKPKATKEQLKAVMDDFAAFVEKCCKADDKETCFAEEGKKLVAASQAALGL
Method: The percentage of compound bound to human serum albumin was measured using a chromatographic method as described. Briefly, each compound was assayed on an immobilized HSA column and gradient retention times measured, with chromatographic peak detection by UV. Each retention time was then converted to a % HSA bound value using a calibration set of compounds with a known % HSA binding.

[7] = Property forecast index (PFI = ChromLogD7.4 + aromatic rings); format: physicochemical
Method: At the outset of the project, compound 1 was evaluated against GSK's established criteria for antileishmanial compound advancement (Table 2). Some of these assessments were performed on racemic 1, while chiral separation was also pursued of the 1 racemate to determine the active enantiomer. […] Based on this promising profile, it progressed into medicinal chemistry optimization to better understand structure-activity relationships (SAR) toward improved potency, as well as structure-property relationships (SPR) with an eye toward reducing PFI and plasma protein binding.

[8] = aqueous medium (not further specified)
[9] = aqueous (not further specified)

| Structure (SMILES) | EC50 [1] [µM] | solubility [4, 8] [µM] | Papp at 3 h [5] [×10⁻⁶ cm/s] | HSA Binding [6] [%] | PFI [7] | solubility ([4]; aqueous medium) [µM] | solubility [4] [µM] | solubility [4, 9] [µM] | EC50 [2] [µM] | EC50 [3] [µM] |
| --- | --- | --- | --- | --- | --- | --- | --- | --- | --- | --- |
| COc1ccc(N2C(=O)c3[nH]nc(CC(C)C)c3C2c2ccccc2F)cc1 (centres unmarked) [Compound 54] | 3.2 | 75 (≈ 28.5 µg/mL) | 23 | 97.3 | 8.6 | – | – | – | 31.6 | 31.6 |
| COc1ccc(N2C(=O)c3[nH]nc(CC(C)C)c3C2c2ccc(OC)nc2)cc1 (centres unmarked) [Compound S12] | > 50 | 272 (≈ 107 µg/mL) | 44 | 92.6 | 7.5 | – | – | – | > 50 | > 100 |
| Cc1ccc(CN2C(=O)c3[nH]nc(CC(C)C)c3C2c2ccc(F)cc2)o1 (centres unmarked) [Compound 35] | 15.8 | 19 (≈ 6.98 µg/mL) | 37 | 97.2 | 8.9 | – | – | – | 39.8 | 50.1 |
| CC(C)Cc1n[nH]c2c1C(c1ccc(F)cc1)N(c1ccc(O)cc1)C2=O (centres unmarked) [Compound 18] | 5 | – | 28.5 | 95.6 | 7.1 | – | – | ≥ 430 | 39.8 | > 100 |
| COc1ccc(N2C(=O)c3[nH]nc(CC(C)C)c3C2c2ccncc2)cc1 (centres unmarked) [Compound S6] | > 50 | ≥ 432 | 23 | 87.9 | 6.3 | – | – | – | > 50 | > 100 |
| COc1ccc(N2C(=O)c3[nH]nc(CC(C)C)c3C2c2c(Cl)cccc2Cl)cc1 (centres unmarked) [Compound 66] | 1 | 6 (≈ 2.58 µg/mL) | 33 | 97.1 | 9.1 | – | – | – | 2.5 | 6.3 |
| CC(C)Cc1n[nH]c2c1C(c1ccc(F)cc1)N(c1ccc(C(C)(C)C)cc1)C2=O (centres unmarked) [Compound 25] | 10 | – | 13 | 97.9 | 10.5 | – | – | < 1 | > 50 | 50.1 |
| COC(=O)c1ccc(C2c3c(CC(C)C)n[nH]c3C(=O)N2c2ccc(OC)cc2)cc1 (centres unmarked) [Compound 51] | 25.1 | 44 (≈ 18.5 µg/mL) | 38 | 95 | 8.2 | – | – | – | 39.8 | 63.1 |
| CC(C)Cc1n[nH]c2c1C(c1ccc(F)cc1)N(c1ccc(C(=O)O)cc1)C2=O (centres unmarked) [Compound 27] | > 50 | – | < 0.3 | 95.2 | 4.9 | – | – | ≥ 389 | > 50 | > 100 |
| COc1cccc(N2C(=O)c3[nH]nc(CC(C)C)c3C2c2ccc(F)cc2)c1 (centres unmarked) [Compound 30] | 12.6 | 64 (≈ 24.3 µg/mL) | 37 | 97.3 | 8.4 | – | – | – | 31.6 | 63.1 |
| CC(C)Cc1n[nH]c2c1C(c1ccc(F)cc1)N(c1cccnc1)C2=O (centres unmarked) [Compound 32] | 25.1 | 182 (≈ 63.8 µg/mL) | 47 | 93.4 | 7.2 | – | – | – | > 50 | > 100 |
| COc1ccccc1N1C(=O)c2[nH]nc(CC(C)C)c2C1c1ccc(F)cc1 (centres unmarked) [Compound 29] | 20 | 240 (≈ 91.1 µg/mL) | 59 | 97.5 | 8.5 | – | – | – | > 50 | 79.4 |
| COc1ccc(N2C(=O)c3[nH]nc(CC(C)C)c3C2c2cc(F)nc(F)c2)cc1 (centres unmarked) [Compound S14] | > 50 | 367 (≈ 146 µg/mL) | 54 | 93 | 7.4 | – | – | – | > 50 | > 100 |
| COc1ccc(N2C(=O)c3[nH]nc(CC(C)C)c3C2c2ccc(F)cc2F)cc1 (centres unmarked) [Compound 63] | 2 | 52 (≈ 20.7 µg/mL) | 14 | 96.1 | 8.8 | – | – | – | 25.1 | 63.1 |
| COc1ccc(N2C(=O)c3[nH]nc(CC(C)C)c3C2c2ccc(Cl)cc2)cc1 (centres unmarked) [Compound 47] | 4 | 22 (≈ 8.71 µg/mL) | 33 | 96.9 | 9.2 | – | – | – | 15.8 | 50.1 |
| COc1ccc(N2C(=O)c3[nH]nc(CC(C)C)c3C2c2cccc(F)c2)cc1 (centres unmarked) [Compound 58] | 5 | 91 (≈ 34.5 µg/mL) | 37 | 96.9 | 8.3 | – | – | – | 12.6 | 50.1 |

Continued by falling EC50 [1], values first:

| EC50 [1] [µM] | solubility [4, 8] [µM] | Papp at 3 h [5] [×10⁻⁶ cm/s] | HSA Binding [6] [%] | PFI [7] | solubility ([4]; aqueous medium) [µM] | solubility [4] [µM] | solubility [4, 9] [µM] | Structure (SMILES) | EC50 [2] [µM] | EC50 [3] [µM] |
| --- | --- | --- | --- | --- | --- | --- | --- | --- | --- | --- |
| 31.6 | ≥ 381 | 49 | 90.2 | 6.5 | – | – | – | CC(C)Cc1n[nH]c2c1C(c1ccc(F)cc1)N(C1CCOCC1)C2=O (centres unmarked) [Compound 38] | > 50 | > 100 |
| 20 | – | 17 | 96.2 | 8.5 | 138 (≈ 56.5 µg/mL) | – | – | COc1ccc(N2C(=O)c3[nH]nc(CC(C)C)c3C2c2ccc(F)cc2)c(OC)c1 (centres unmarked) [Compound 43] | 31.6 | 63.1 |
| 10 | 386 (≈ 151 µg/mL) | 47 | 91.2 | 6.6 | – | – | – | COc1ccc(N2C(=O)c3[nH]nc(CC(C)C)c3C2c2cncc(OC)c2)cc1 (centres unmarked) [Compound S11] | 20 | > 100 |
| 8 | 12 (≈ 5.15 µg/mL) | 21 | 96.9 | 9.3 | – | – | – | COc1ccc(N2C(=O)c3[nH]nc(CC(C)C)c3C2c2ccc(C(F)(F)F)cc2)cc1 (centres unmarked) [Compound 49] | 15.8 | 50.1 |
| 7.9 | 19 (≈ 7.52 µg/mL) | 28 | 96.8 | 9.0 | – | – | – | COc1ccc(N2C(=O)c3[nH]nc(CC(C)C)c3C2c2cccc(Cl)c2)cc1 (centres unmarked) [Compound 59] | 39.8 | 39.8 |
| 6.3 | – | 12 | 97.7 | 8.8 | – | – | 61 (≈ 22.4 µg/mL) | CC(C)Cc1n[nH]c2c1C(c1ccc(F)cc1)N(c1ccc(F)cc1)C2=O (centres unmarked) [Compound 23] | 25.1 | 50.1 |
| 6.3 | – | 36 | 98.0 | 9.7 | – | 6 (≈ 2.56 µg/mL) | – | COc1ccc(N2C(=O)c3[nH]nc(CCc4ccccc4)c3C2c2ccc(F)cc2)cc1 (centres unmarked) [Compound 15] | 25.1 | 50.1 |
| 5 | – | 13 | 97.8 | 10.6 | – | 17 (≈ 7.47 µg/mL) | – | COc1ccc(N2C(=O)c3[nH]nc(-c4ccc5c(c4)CCC5)c3C2c2ccc(F)cc2)cc1 (centres unmarked) [Compound 16] | 7.9 | 25.1 |
| 3.2 | – | 29 | 98.1 | 9.8 | – | – | 5 (≈ 2.17 µg/mL) | CC(C)Cc1n[nH]c2c1C(c1ccc(F)cc1)N(c1ccc(OC(F)(F)F)cc1)C2=O (centres unmarked) [Compound 20] | 7.9 | 25.1 |
| 0.5 | – | 37 | 96.8 | 8.5 | – | 52 (≈ 20.4 µg/mL) | – | C=C(C)CCc1n[nH]c2c1C(c1ccc(F)cc1)N(c1ccc(OC)cc1)C2=O (centres unmarked) [Compound 13] | 1.6 | 50.1 |
